Measured values: patent publication US10112941B2, “Tricyclic compounds as anticancer agents” (BRISTOL-MYERS SQUIBB COMPANY, priority 2013, dated 2018)
pIC50: −log10 of the molar value.

target: BRD4 (Homo sapiens, UniProt O60885); experiment: Time Resolved Fluorescence Resonance Energy Transfer (TR-FRET) binding assay, BRD4; details: one of the FRET assays described; read-out: FRET BRD4 IC50

`Cc1noc(C)c1-c1cnc2c3ccc(C(C)(C)O)cc3n(C(c3ccccc3)C3CCOCC3)c2c1` (single isomer, unassigned) [Example 1, 2-[3-(Dimethyl-1,2-oxazol-4-yl)-5-[oxan-4-yl(phenyl)methyl]-5H-pyrido[3,2-b]indol-7-yl]propan-2-ol] and `Cc1noc(C)c1-c1cnc2c3ccc(C(C)(C)O)cc3n(C(c3ccccc3)C3CCC(F)(F)CC3)c2c1` (single isomer, unassigned) [Example 27, 2-{5-[(4,4-Difluorocyclohexyl)(phenyl)methyl]-3-(dimethyl-1,2-oxazol-4-yl)-5H-pyrido[3,2-b]indol-7-yl}propan-2-ol] cannot be ordered by pIC50: over 8.30 for the first, over 8.30 for the second.

`Cc1noc(C)c1-c1cnc2c3ccc(C(C)(C)O)cc3n(C(c3ccccc3)C3CCOCC3)c2c1` (single isomer, unassigned) [Example 2, 2-[3-(Dimethyl-1,2-oxazol-4-yl)-5-[oxan-4-yl(phenyl)methyl]-5H-pyrido[3,2-b]indol-7-yl]propan-2-ol] and `Cc1noc(C)c1-c1cnc2c3ccc(C(C)(C)O)cc3n(C(c3ccccc3)C3CCC(F)(F)CC3)c2c1` (single isomer, unassigned) [Example 28, 2-{5-[(4,4-Difluorocyclohexyl)(phenyl)methyl]-3-(dimethyl-1,2-oxazol-4-yl)-5H-pyrido[3,2-b]indol-7-yl}propan-2-ol] cannot be ordered by pIC50: over 8.30 for the first, over 8.30 for the second.

`Cc1noc(C)c1-c1cnc2c3ccc(C(C)(C)O)cc3n(C(c3ccccc3)c3cscn3)c2c1` (single isomer, unassigned) [Example 29, 2-[3-(Dimethyl-1,2-oxazol-4-yl)-5-[phenyl(1,3-thiazol-4-yl)methyl]-5H-pyrido[3,2-b]indol-7-yl]propan-2-ol] and `Cc1noc(C)c1-c1cnc2c3ccc(C(C)(C)O)cc3n(C(c3ccccc3)C3(F)CCC3)c2c1` (single isomer, unassigned) [Example 32, 2-[3-(Dimethyl-1,2-oxazol-4-yl)-5-[(1-fluorocyclobutyl)(phenyl)methyl]-5H-pyrido[3,2-b]indol-7-yl]propan-2-ol] cannot be ordered by pIC50: over 8.30 for the first, over 8.30 for the second.

`Cc1noc(C)c1-c1cnc2c3ccc(C(C)(C)O)cc3n(C(c3ccccc3)c3cscn3)c2c1` (single isomer, unassigned) [Example 30, 2-[3-(Dimethyl-1,2-oxazol-4-yl)-5-[phenyl(1,3-thiazol-4-yl)methyl]-5H-pyrido[3,2-b]indol-7-yl]propan-2-ol] and `Cc1noc(C)c1-c1cnc2c3ccc(C(C)(C)O)cc3n(C(c3ccccc3)C3(F)CCC3)c2c1` (single isomer, unassigned) [Example 33, 2-[3-(Dimethyl-1,2-oxazol-4-yl)-5-[(1-fluorocyclobutyl)(phenyl)methyl]-5H-pyrido[3,2-b]indol-7-yl]propan-2-ol] cannot be ordered by pIC50: over 8.30 for the first, over 8.30 for the second.

`Cc1noc(C)c1-c1cnc2c3ccc(C(C)(C)O)cc3n(C(CCC(F)(F)F)c3cocn3)c2c1` (single isomer, unassigned) [Example 34, 2-[3-(Dimethyl-1,2-oxazol-4-yl)-5-[4,4,4-trifluoro-1-(1,3-oxazol-4-yl)butyl]-5H-pyrido[3,2-b]indol-7-yl]propan-2-ol] and `Cc1noc(C)c1-c1cnc2c3ccc(C(C)(C)O)cc3n(C(CCC(F)(F)F)c3cnoc3)c2c1` (single isomer, unassigned) [Example 36, 2-[3-(Dimethyl-1,2-oxazol-4-yl)-5-[4,4,4-trifluoro-1-(1,2-oxazol-4-yl)butyl]-5H-pyrido[3,2-b]indol-7-yl]propan-2-ol] cannot be ordered by pIC50: over 8.30 for the first, over 7.60 for the second.

`Cc1noc(C)c1-c1cnc2c3ccc(C(C)(C)O)cc3n(C(CCC(F)(F)F)c3cocn3)c2c1` (single isomer, unassigned) [Example 35, 2-[3-(Dimethyl-1,2-oxazol-4-yl)-5-[4,4,4-trifluoro-1-(1,3-oxazol-4-yl)butyl]-5H-pyrido[3,2-b]indol-7-yl]propan-2-ol] and `Cc1noc(C)c1-c1cnc2c3ccc(C(C)(C)O)cc3n(C(CCC(F)(F)F)c3cnoc3)c2c1` (single isomer, unassigned) [Example 37, 2-[3-(Dimethyl-1,2-oxazol-4-yl)-5-[4,4,4-trifluoro-1-(1,2-oxazol-4-yl)butyl]-5H-pyrido[3,2-b]indol-7-yl]propan-2-ol] cannot be ordered by pIC50: over 7.60 for the first, over 8.30 for the second.

`Cc1noc(C)c1-c1cnc2c3ccc(S(C)(=O)=O)cc3n(C(CCC(F)(F)F)c3ccccc3)c2c1` (single isomer, unassigned) [Example 38, 4-[7-Methanesulfonyl-5-(4,4,4-trifluoro-1-phenylbutyl)-5H-pyrido[3,2-b]indol-3-yl]-3,5-dimethyl-1,2-oxazole] and `Cc1nnn(C)c1-c1cnc2c3ccc(C(C)(C)O)cc3n([C@H](c3ccccc3)C3CCOCC3)c2c1` (single isomer, unassigned) [Example 54] cannot be ordered by pIC50: over 7.60 for the first, over 8.30 for the second.

`Cc1noc(C)c1-c1cnc2c3ccc(S(C)(=O)=O)cc3n(C(CCC(F)(F)F)c3ccccc3)c2c1` (single isomer, unassigned) [Example 39, 4-[7-Methanesulfonyl-5-(4,4,4-trifluoro-1-phenylbutyl)-5H-pyrido[3,2-b]indol-3-yl]-3,5-dimethyl-1,2-oxazole] and `Cc1nnn(C)c1-c1cnc2c3ccc(C(C)(C)O)cc3n([C@@H](c3ccccc3)C3CCOCC3)c2c1` (single isomer, unassigned) [Example 55, 2-[3-(Dimethyl-1H-1,2,3-triazol-5-yl)-5-[oxan-4-yl(phenyl)methyl]-5H-pyrido[3,2-b]indol-7-yl]propan-2-ol] cannot be ordered by pIC50: over 5.82 for the first, over 8.30 for the second.

`Cc1oncc1-c1cnc2c3ccc(C(C)(C)O)cc3n(C(c3ccc(F)cc3)C3CCOCC3)c2c1` (single isomer, unassigned) [Example 40, 2-{5-[(4-Fluorophenyl)(oxan-4-yl)methyl]-3-(5-methyl-1,2-oxazol-4-yl)-5H-pyrido[3,2-b]indol-7-yl}propan-2-ol] and `Cc1nocc1-c1cnc2c3ccc(C(C)(C)O)cc3n(C(c3ccc(F)cc3)C3CCOCC3)c2c1` (single isomer, unassigned) [Example 42, 2-{5-[(4-Fluorophenyl)(oxan-4-yl)methyl]-3-(3-methyl-1,2-oxazol-4-yl)-5H-pyrido[3,2-b]indol-7-yl}propan-2-ol] cannot be ordered by pIC50: over 7.60 for the first, over 7.60 for the second.

`Cc1oncc1-c1cnc2c3ccc(C(C)(C)O)cc3n(C(c3ccc(F)cc3)C3CCOCC3)c2c1` (single isomer, unassigned) [Example 41, 2-{5-[(4-Fluorophenyl)(oxan-4-yl)methyl]-3-(5-methyl-1,2-oxazol-4-yl)-5H-pyrido[3,2-b]indol-7-yl}propan-2-ol] and `Cc1nocc1-c1cnc2c3ccc(C(C)(C)O)cc3n(C(c3ccc(F)cc3)C3CCOCC3)c2c1` (single isomer, unassigned) [Example 43, 2-{5-[(4-Fluorophenyl)(oxan-4-yl)methyl]-3-(3-methyl-1,2-oxazol-4-yl)-5H-pyrido[3,2-b]indol-7-yl}propan-2-ol] cannot be ordered by pIC50: over 5.82 for the first, over 5.82 for the second.

`Cn1nncc1-c1cnc2c3ccc(C(C)(C)O)cc3n(C(c3ccc(F)cc3)C3CCOCC3)c2c1` (single isomer, unassigned) [Example 66, 2-{5-[(4-Fluorophenyl)(oxan-4-yl)methyl]-3-(1-methyl-1H-1,2,3-triazol-5-yl)-5H-pyrido[3,2-b]indol-7-yl}propan-2-ol] and `Cc1nnn(C)c1-c1cnc2c3cc(F)c(C(C)(C)O)cc3n(C(c3ccc(F)cc3)C3CCOCC3)c2c1` (single isomer, unassigned) [Example 78, 2-[3-(Dimethyl-1H-1,2,3-triazol-5-yl)-8-fluoro-5-[(4-fluorophenyl)(oxan-4-yl)methyl]-5H-pyrido[3,2-b]indol-7-yl]propan-2-ol] cannot be ordered by pIC50: over 8.30 for the first, over 8.30 for the second.

`Cn1nncc1-c1cnc2c3ccc(C(C)(C)O)cc3n(C(c3ccc(F)cc3)C3CCOCC3)c2c1` (single isomer, unassigned) [Example 67, 2-{5-[(4-Fluorophenyl)(oxan-4-yl)methyl]-3-(1-methyl-1H-1,2,3-triazol-5-yl)-5H-pyrido[3,2-b]indol-7-yl}propan-2-ol] and `Cc1nnn(C)c1-c1cnc2c3cc(F)c(C(C)(C)O)cc3n(C(c3ccc(F)cc3)C3CCOCC3)c2c1` (single isomer, unassigned) [Example 79, 2-[3-(Dimethyl-1H-1,2,3-triazol-5-yl)-8-fluoro-5-[(4-fluorophenyl)(oxan-4-yl)methyl]-5H-pyrido[3,2-b]indol-7-yl]propan-2-ol] cannot be ordered by pIC50: over 7.60 for the first, over 7.60 for the second.

`Cc1nnn(C)c1-c1cnc2c3ccc(C(C)(C)O)c(F)c3n(C(c3ccccc3)C3CCOCC3)c2c1` (single isomer, unassigned) [Example 71, 2-[3-(Dimethyl-1H-1,2,3-triazol-5-yl)-6-fluoro-5-[oxan-4-yl(phenyl)methyl]-5H-pyrido[3,2-b]indol-7-yl]propan-2-ol] and `Cc1nnn(C)c1-c1cnc2c3ccc(C(C)(C)O)cc3n(C(c3cccc(F)c3F)C3CCOCC3)c2c1` (single isomer, unassigned) [Example 94, 2-{5-[(2,3-Difluorophenyl)(oxan-4-yl)methyl]-3-(dimethyl-1H-1,2,3-triazol-5-yl)-5H-pyrido[3,2-b]indol-7-yl}propan-2-ol] cannot be ordered by pIC50: over 8.30 for the first, over 8.30 for the second.

`Cc1noc(C)c1-c1cnc2c3ccc(C(C)(C)O)c(F)c3n(C(c3ccc(F)cc3)C3CCOCC3)c2c1` (single isomer, unassigned) [Example 80, 2-[3-(Dimethyl-1,2-oxazol-4-yl)-6-fluoro-5-[(4-fluorophenyl)(oxan-4-yl)methyl]-5H-pyrido[3,2-b]indol-7-yl]propan-2-ol] and `Cc1nnn(C)c1-c1cnc2c3ccc(C(C)(C)O)cc3n(C(c3cccc(F)c3F)C3CCOCC3)c2c1` (single isomer, unassigned) [Example 95, 2-{5-[(2,3-Difluorophenyl)(oxan-4-yl)methyl]-3-(dimethyl-1H-1,2,3-triazol-5-yl)-5H-pyrido[3,2-b]indol-7-yl}propan-2-ol] cannot be ordered by pIC50: over 7.60 for the first, over 8.30 for the second.

Work on `Cc1noc(C)c1-c1cnc2c3ccc(C(C)(C)O)c(F)c3n(C(c3ccc(F)cc3)C3CCOCC3)c2c1` (single isomer, unassigned) [Example 81, 2-[3-(Dimethyl-1,2-oxazol-4-yl)-6-fluoro-5-[(4-fluorophenyl)(oxan-4-yl)methyl]-5H-pyrido[3,2-b]indol-7-yl]propan-2-ol] yielded a pIC50 of over 8.30.
